pIC50: −log10 of the molar value.
What was measured:
Format in all cases: cell-based
[1] = tested on: H1299 (non small cell lung carcinoma) cells; experiment: in vitro inhibition of H1299 cells
Method: (§1) Various exemplary 5-fluoro-4-pyrmidineamine compounds (illustrated in TABLE 1, infra) were synthesized as described herein and tested for their ability to inhibit A549 (lung carcinoma), DLD-1 (colorectal adenocarcinoma), H1299 (non small cell lung carcinoma), HCT116 (colorectal carcinoma), HELA (cervical adenocarcinoma) and/or U2OS (bone osterosarcoma) cells in vitro. […] A blank indicates the particular compound was […].

[2] = tested on: A549 (lung carcinoma) cells; experiment: in vitro inhibition of A549 cells
Method: as §1

[3] = tested on: HELA (cervical adenocarcinoma) cells; experiment: in vitro inhibition of HELA cells
Method: as §1

[4] = tested on: Colo205 (colorectal adenocarcinoma); experiment: 9-point anti-proliferation assay, Colo205; conditions: Colo205, 9-point anti-proliferation assay
[5] = tested on: U2OS (bone osterosarcoma) cells; experiment: in vitro inhibition of U2OS cells
Method: as §1

[6] = tested on: DLD-1 (colorectal adenocarcinoma) cells; experiment: in vitro inhibition of DLD-1 cells; conditions: DLD-1 (colorectal adenocarcinoma) cells in vitro
Method: as §1

[7] = tested on: HCT116 (colorectal carcinoma) cells; experiment: in vitro inhibition of HCT116 cells
Method: as §1

[8] = tested on: A549; experiment: 9-point anti-proliferation assay, A549; conditions: A549, 9-point anti-proliferation assay
[9] = tested on: HCT116; experiment: 9-point anti-proliferation assay, HCT116; conditions: HCT116, 9-point anti-proliferation assay
[10] = tested on: Miapaca2 (pancreatic carcinoma); experiment: 9-point anti-proliferation assay, Miapaca2; conditions: Miapaca2, 9-point anti-proliferation assay
[11] = tested on: JAR (placental choriocarcinoma); experiment: additional cell line JAR
Method: (§2) Compound 1 was tested against the following additional cell lines: ACHN (renal cell adenocarcimona), JAR (placental choriocarcinoma), MCF7 (estrogen-dependent breast adenocarcinoma), MDA-MB-231 (estrogen independent breast adenocarcinoma), SKMEL28 (human melanoma) and SKMEL5 (human melanoma). In all cases, the IC50 was less than 1 μM.

[12] = tested on: SKMEL5 (human melanoma); experiment: additional cell line SKMEL5
Method: as §2

[13] = tested on: SKMEL28 (human melanoma); experiment: additional cell line SKMEL28
Method: as §2

[14] = tested on: MCF7 (estrogen-dependent breast adenocarcinoma); experiment: additional cell line MCF7
Method: as §2

[15] = tested on: MDA-MB-231 (estrogen independent breast adenocarcinoma); experiment: additional cell line MDA-MB-231; conditions: MDA-MB-231 cell line
Method: as §2

[16] = tested on: ACHN (renal cell adenocarcimona); experiment: additional cell line ACHN
Method: as §2

Compound: COc1ccc(N(C)c2nc(Cl)ncc2F)cc1OC [Compound 2]
- pIC50 [1]: ≥ 6.00
- pIC50 [2]: ≥ 6.00

Compound: CN(c1ccc2c(c1)OCCO2)c1nc(-c2cc[s+]([O-])c2)ncc1F (stereo not shown) [Compound 41, N4-(3,4-ethylenedioxyphenyl)-5-fluoro-N-4-methyl-2-(1-oxide-3-thienyl)-4-pyrimidineamine]
- pIC50 [1]: 5.00 to 6.00
- pIC50 [2]: ≥ 5.00

Compound: Cc1cc(N(C)c2nc(Cl)ncc2F)cc(C)c1Cl [Compound 11]
- pIC50 [1]: < 4.70
- pIC50 [2]: < 4.70

Compound: CN(c1ccc2c(c1)OCCO2)c1nc(-c2csc3ccccc23)ncc1F [Compound 36, 2-(Benzothiophen-3-yl)-N-4-(3,4-ethylenedioxyphenyl)-5-fluoro-N-4-methyl-4-pyrimidineamine]
- pIC50 [1]: < 4.70
- pIC50 [2]: < 4.70

Compound: CN(c1ccc2c(c1)OCCO2)c1nc(-c2ccsc2)ncc1F [Compound 25, N4-(3,4-Ethylenedioxyphenyl)-5-fluoro-N-4-methyl-2-(3-thienyl)-4-pyrimidineamine]
- pIC50 [3]: ≥ 6.00
- pIC50 [4]: > 6.00
- pIC50 [5]: ≥ 6.00
- pIC50 [1]: ≥ 6.00
- pIC50 [6]: ≥ 6.00
- pIC50 [7]: ≥ 6.00
- pIC50 [8]: > 6.00
- pIC50 [9]: > 6.00
- pIC50 [10]: > 6.00
- pIC50 [2]: ≥ 6.00

Compound: COc1cc(N(C)c2nc(Cl)ncc2F)cc(OC)c1OC [Compound 10]
- pIC50 [1]: < 4.70
- pIC50 [2]: < 4.70

Compound: CN(c1ccc2c(c1)OCCO2)c1nc(-c2ccsc2C=O)ncc1F [Compound 39, N4-(3,4-ethylenedioxyphenyl)-5-fluoro-2-(2-formylthien-3-yl)-N-4-methyl-4-pyrimidineamine]
- pIC50 [1]: ≥ 6.00
- pIC50 [2]: ≥ 6.00

Compound: COc1ncc(F)c(N(C)c2ccc3c(c2)OCCO3)n1 [Compound 15]
- pIC50 [1]: 5.00 to 6.00
- pIC50 [2]: ≥ 5.00

Compound: CN(c1ccc2c(c1)OCCO2)c1nc(Cl)ncc1F [Compound 1, 2-chloro-N-4-(3,4-ethylenedioxyphenyl)-5-fluoro-N-4-methyl-4-pyrimidineamine]
- pIC50 [11]: > 6.00
- pIC50 [3]: ≥ 6.00
- pIC50 [5]: ≥ 6.00
- pIC50 [1]: ≥ 6.00
- pIC50 [12]: > 6.00
- pIC50 [13]: > 6.00
- pIC50 [14]: > 6.00
- pIC50 [7]: ≥ 6.00
- pIC50 [15]: > 6.00
- pIC50 [16]: > 6.00
- pIC50 [2]: ≥ 6.00

Compound: COc1c(Cl)cc(N(C)c2nc(Cl)ncc2F)cc1Cl [Compound 5]
- pIC50 [1]: ≥ 5.00
- pIC50 [2]: 5.00 to 6.00

Compound: CN(c1ccc2c(c1)OCCO2)c1nc(-c2ccncc2)ncc1F [Compound 28, N4-(3,4-Ethylenedioxyphenyl)-5-fluoro-N-4-methyl-2-(pyridin-4-yl)-4-pyrimidineamine]
- pIC50 [1]: ≥ 6.00
- pIC50 [2]: ≥ 6.00

Compound: CN(c1ccc2c(c1)OCCO2)c1nc(-c2ccc3c(c2)OCO3)ncc1F [Compound 21, N4-(3,4-Ethylenedioxyphenyl)-5-fluoro-N-4-methyl-2-(3,4-methylenedioxyphenyl)-4-pyrimidineamine]
- pIC50 [3]: ≥ 4.70
- pIC50 [5]: ≥ 4.70
- pIC50 [1]: 5.00 to 6.00
- pIC50 [6]: ≥ 4.70
- pIC50 [7]: ≥ 4.70
- pIC50 [2]: ≥ 5.00

Compound: CN(c1ccc2c(c1)OCCO2)c1nc(-c2nccs2)ncc1F [Compound 30, N4-(3,4-Ethylenedioxyphenyl)-5-fluoro-N-4-methyl-2-(thiazol-2-yl)-4-pyrimidineamine]
- pIC50 [1]: 5.00 to 6.00
- pIC50 [2]: ≥ 5.00

Compound: Cc1noc(C)c1-c1ncc(F)c(N(C)c2ccc3c(c2)OCCO3)n1 [Compound 29, 2-(3,5-Dimethylisoxazol-4-yl)-N-4-(3,4-ethylenedioxyphenyl)-5-fluoro-N-4-methyl-4-pyrimidineamine]
- pIC50 [1]: 5.00 to 6.00
- pIC50 [2]: ≥ 5.00

Compound: Cc1ccc(-c2ncc(F)c(N(C)c3ccc4c(c3)OCCO4)n2)s1 [Compound 33, N4-(3,4-Ethylenedioxyphenyl)-5-fluoro-N-4-methyl-2-(5-methyl-2-thienyl)-4-pyrimidineamine]
- pIC50 [1]: 5.00 to 6.00
- pIC50 [2]: ≥ 5.00

Compound: COc1ccc(-c2ncc(F)c(N(C)c3ccc4c(c3)OCCO4)n2)cc1OC [Compound 20, N4-(3,4-Ethylenedioxyphenyl)-2-(3,4-dimethoxyphenyl)-5-fluoro-N-4-methyl-4-pyrimidineamine]
- pIC50 [3]: < 4.70
- pIC50 [5]: < 4.70
- pIC50 [1]: < 4.70
- pIC50 [6]: < 4.70
- pIC50 [7]: < 4.70
- pIC50 [2]: < 4.70

Compound: Cc1cscc1-c1ncc(F)c(N(C)c2ccc3c(c2)OCCO3)n1 [Compound 34, N4-(3,4-Ethylenedioxyphenyl)-5-fluoro-N-4-methyl-2-(4-methyl-3-thienyl)-4-pyrimidineamine]
- pIC50 [1]: ≥ 6.00
- pIC50 [2]: ≥ 6.00

Compound: CN(c1ccc2c(c1)OCCO2)c1nc(-c2ccc[nH]2)ncc1F [Compound 31, N4-(3,4-Ethylenedioxyphenyl)-5-fluoro-N-4-methyl-2-(1H-pyrrol-2-yl)-4-pyrimidineamine]
- pIC50 [3]: ≥ 6.00
- pIC50 [5]: ≥ 6.00
- pIC50 [1]: ≥ 6.00
- pIC50 [6]: ≥ 6.00
- pIC50 [7]: ≥ 6.00
- pIC50 [2]: ≥ 6.00

Compound: CN(c1ccc2c(c1)OCCO2)c1nc(-c2ccco2)ncc1F [Compound 22, N4-(3,4-Ethylenedioxyphenyl)-5-fluoro-2-(2-furyl)-N-4-methyl-4-pyrimidineamine]
- pIC50 [3]: ≥ 5.00
- pIC50 [5]: ≥ 5.00
- pIC50 [1]: ≥ 6.00
- pIC50 [6]: ≥ 5.00
- pIC50 [7]: ≥ 5.00
- pIC50 [2]: ≥ 6.00

Compound: N4-(3,4-Ethylenedioxyphenyl)-5-fluoro-2-(3-hydroxyphenyl)-N-4-methyl-4-pyrimidineamine [Compound 19]
- pIC50 [1]: 5.00 to 6.00
- pIC50 [2]: ≥ 5.00

Compound: CN(c1ccc2c(c1)OCCO2)c1nc(-c2ccoc2)ncc1F [Compound 26, N4-(3,4-Ethylenedioxyphenyl)-5-fluoro-2-(3-furyl)-N-4-methyl-4-pyrimidineamine]
- pIC50 [3]: ≥ 6.00
- pIC50 [5]: ≥ 6.00
- pIC50 [1]: ≥ 6.00
- pIC50 [6]: ≥ 6.00
- pIC50 [7]: ≥ 6.00
- pIC50 [2]: ≥ 6.00

Compound: CN(c1ccc2c(c1)OCCO2)c1nc(-c2cc3ccccc3s2)ncc1F [Compound 35, 2-(Benzothiophen-2-yl)-N-4-(3,4-ethylenedioxyphenyl)-5-fluoro-N-4-methyl-4-pyrimidineamine]
- pIC50 [1]: < 4.70
- pIC50 [2]: < 4.70

Compound: CN(c1ccc2c(c1)OCCO2)c1nc(-c2cccc(N)c2)ncc1F [Compound 23, 2-(3-Aminophenyl)-N-4-(3,4-ethylenedioxyphenyl)-5-fluoro-N-4-methyl-4-pyrimidineamine]
- pIC50 [3]: ≥ 5.00
- pIC50 [5]: ≥ 5.00
- pIC50 [1]: ≥ 6.00
- pIC50 [6]: ≥ 5.00
- pIC50 [7]: ≥ 5.00
- pIC50 [2]: ≥ 6.00

Compound: CCCN(c1ccc(OC)c(Cl)c1)c1nc(Cl)ncc1F [Compound 9]
- pIC50 [1]: ≥ 5.00
- pIC50 [2]: 5.00 to 6.00

Compound: CN(c1ccc2c(c1)OCCO2)c1nc(-c2ccccc2)ncc1F [Compound 18, N4-(3,4-Ethylenedioxyphenyl)-5-fluoro-N-4-methyl-2-(phenyl)-4-pyrimidineamine]
- pIC50 [1]: ≥ 6.00
- pIC50 [2]: ≥ 6.00

Compound: CN(c1ccc2c(c1)OCCO2)c1nc(-c2ccc(Cl)s2)ncc1F [Compound 37, 2-(5-Chloro-2-thienyl)-N-4-(3,4-ethylenedioxyphenyl)-5-fluoro-N-4-methyl-4-pyrimidineamine]
- pIC50 [1]: 4.70 to 5.00
- pIC50 [2]: < 4.70

Compound: CN(c1ccc2c(c1)OCCO2)c1nc(-c2cccnc2)ncc1F [Compound 27, N4-(3,4-Ethylenedioxyphenyl)-5-fluoro-N-4-methyl-2-(pyridin-3-yl)-4-pyrimidineamine]
- pIC50 [1]: 5.00 to 6.00
- pIC50 [2]: ≥ 5.00

Compound: COc1cc(N(C)c2nc(Cl)ncc2F)ccc1Cl [Compound 6]
- pIC50 [1]: < 4.70
- pIC50 [2]: < 4.70

Compound: CNCc1sccc1-c1ncc(F)c(N(C)c2ccc3c(c2)OCCO3)n1 [Compound 40, N4-(3,4-ethylenedioxyphenyl)-5-fluoro-N-4-methyl-2-(2-methylaminomethylenethien-3-yl)-4-pyrimidineamine]
- pIC50 [1]: 5.00 to 6.00
- pIC50 [2]: ≥ 5.00

Compound: COc1ccc(N(C)c2nc(Cl)ncc2F)cc1Cl [Compound 7]
- pIC50 [1]: ≥ 6.00
- pIC50 [2]: ≥ 6.00

Compound: COc1cc(OC)cc(N(C)c2nc(Cl)ncc2F)c1 [Compound 12]
- pIC50 [1]: < 4.70
- pIC50 [2]: < 4.70

Source: patent US7482351B2, “4-pyrimidineamine compounds and their uses as anti-proliferative agents” (Rigel Pharmaceuticals, Inc., priority 2004, dated 2009)
